Legend:
C2C12 skeletal myotubes = test: Total cellular protein content in C2C12 skeletal myotubes (BCA); type: cell-based, Mouse; settings: 48 h incubation, vs vehicle (0.1% DMSO); for Percent change in total protein at 0.03 µM / Percent change in total protein at 0.1 µM / Percent change in total protein at 0.3 µM / Percent change in total protein at 1 µM / Percent change in total protein at 3 µM: Mus musculus, C2C12
Experimental: The compounds were tested in a well-established in vitro model of skeletal muscle, namely fully differentiated, post-mitotic C2C12 skeletal myotubes. Mouse C2C12 myoblasts may be obtained from ATCC (CRL-1772) and maintained at 37° C. and 5% CO2 in Dulbecco's modified Eagle's medium (ATCC #30-2002) containing antibiotics (100 units/mL penicillin, […] streptomycin sulfate) and 10% (v/v) fetal bovine serum (FBS). Myoblasts were set up for experiments on day 0 in 6-well plates at a density of 2.5×10^5 cells/well. On day 2, myoblasts were induced to differentiate into myotubes by replacing 10% FBS with 2% horse serum (HS). On day 7, myotubes were rinsed once with PBS, and then 2% HS was replaced with 10% FBS. The vehicle (0.1% DMSO) or varying concentrations of test compound were added directly to the media. After 48 h incubation, myotube protein content and size were measured.
To determine myotube protein content, myotubes were washed with ice cold PBS, scraped into lysis buffer (10 mM Tris-HCl, pH 7.6, 100 mM NaCl, and 1% (w/v) SDS, complete Mini protease inhibitor cocktail (Roche), and a 1:100 dilution of phosphatase inhibitor cocktail 3 (Sigma)), and then lysed with 10 passes through a 22-gauge needle. An aliquot of each myotube lysate sample was then used to determine protein concentration by the BCA kit (Pierce). […] To determine myotube size, myotubes were subjected to immunofluorescence staining with anti-troponin primary antibody and a fluorescent secondary antibody. Myotubes were then imaged on an Olympus IX-71 microscope equipped with a DP-70 camera and epifluorescence filters. Image analysis was performed using ImageJ software.

[1] = system: Male C57BL/6 mice, tibialis anterior (TA) muscle; test: Mouse model of muscular atrophy: unilateral tibialis anterior immobilization; type: in vivo; settings: 10 mg/kg i.p. twice a day for 7 days; 6 days TA immobilization; immobilized TA weight normalized to contralateral mobile TA; 12-13 mice
Experimental: Compounds of the invention were also tested in vivo in an established mouse model for muscular atrophy. Male C57BL/6 mice (8-10 weeks old) were administered i.p. injections of vehicle (corn oil) or 10 mg/kg test compound twice a day for 7 days. After 1 day of i.p. injections, one tibialis anterior (TA) muscle in each mouse was immobilized with a metal clip to induce skeletal muscle atrophy, as described previously (Dyle et al., Journal of Biological Chemistry 289: 14913-14924, 2014). In each mouse, the contralateral TA muscle remained mobile and served as a non-atrophied intrasubject control. After 7 days of i.p injections (6 days of unilateral TA immobilization), bilateral TA muscles were harvested and weighed. In each mouse, the amount of skeletal muscle loss in the immobilized TA muscle was determined by normalizing the weight of the immobilized TA muscle to the weight of the contralateral mobile (control) TA muscle. The data below are means ±SEM from 12-13 mice per condition. table: […]

| SMILES | Percent change in total protein at 0.03 µM (C2C12 skeletal myotubes; 0.03 μM) [%] | Percent change in total protein at 0.1 µM (C2C12 skeletal myotubes; 0.1 μM) [%] | Percent change in total protein at 0.3 µM (C2C12 skeletal myotubes; 0.3 μM) [%] | Percent change in total protein at 1 µM (C2C12 skeletal myotubes; 1 μM) [%] | Percent change in total protein at 3 µM (C2C12 skeletal myotubes; 3 μM) [%] | % Muscle Loss (Mean ± SEM) [1] [%] | Percent Change in Total Protein (C2C12 skeletal myotubes; 0.03 μM) [%] | Percent Change in Total Protein (C2C12 skeletal myotubes; 0.1 μM) [%] | Percent Change in Total Protein (C2C12 skeletal myotubes; 0.3 μM) [%] | Percent Change in Total Protein (C2C12 skeletal myotubes; 1 μM) [%] | Percent Change in Total Protein (C2C12 skeletal myotubes; 3 μM) [%] |
| --- | --- | --- | --- | --- | --- | --- | --- | --- | --- | --- | --- |
| CC1=C(CC[C@H](C)CNC(=O)OC(C)(C)C)O[C@H]2C[C@H]3[C@@H]4CC[C@H]5C[C@@H](O)CC[C@]5(C)[C@H]4CC[C@]3(C)[C@@H]12 [Example 2, tert-Butyl ((S)-4-((2aS,4S, 6aS,6bS, 8aS, 8bS,11aS,12aS,12bR)-4-hydroxy-6a, 8a,9-trimethyl-2,2a,3 ,4,5,6,6a,6b,7,8,8a, 8b,11a,12,12a,12b-hexadecahydro-1H-naphtho[2′,1′:4,5]indeno[2,1-b]furan-10-yl)-2-methylbutyl)carbamate] | 3.2 ± 2.1 | 3.2 ± 3 | 4.9 ± 3.9 | 8.3 ± 3.8 | 10.8 ± 3 | 8.6 ± 1.8 |  |  |  |  |  |
| CC(=O)NC[C@@H](C)CCC1=C(C)[C@H]2[C@H](C[C@H]3[C@@H]4CC[C@H]5C[C@@H](OC(C)=O)CC[C@]5(C)[C@H]4CC[C@@]32C)O1 [Example 1, (2aS,4S,6aS,6bS,8aS,8bS,11aS,12aS,12bR)-10-((S)-4-acetamido-3-methylbutyl)-6a,8a,9-trimethyl-2,2a,3,4,5,6,6a,6b,7,8,8a,8b,11a,12,12a,12b-hexadecahydro-1H-naphtho[2′,1′:4,5]indeno[2,1-b]furan-4-yl acetate] | 1 ± 1.1 | 5.6 ± 3.3 | 10.7 ± 1.9 | 16.7 ± 1.3 | 18.1 ± 0.5 | 4.8 ± 1.4 |  |  |  |  |  |
| CC1=C(CC[C@H](C)CNC(=O)OC(C)(C)C)O[C@H]2C[C@H]3[C@@H]4CC[C@H]5CC(NCCO)CC[C@]5(C)[C@H]4CC[C@]3(C)[C@@H]12 (stereo partly drawn) [Example 10, tert-Butyl ((2S)-4-((2aS,6aS,6bS,8aS,8bS,11aS,12aS,12bR)-4-((2-hydroxyethyl)amino)-6a,8a,9-trimethyl-2,2a,3,4,5,6,6a,6b,7,8,8a,8b,11a,12,12a,12b-hexadecahydro-1H-naphtho[2′,1′:4,5]indeno[2,1-b]furan-10-yl)-2-methylbutyl)carbamate] | 10.3 ± 2.7 | 10.6 ± 2.2 | 15 ± 2.2 | 12.9 ± 1.6 | 16.1 ± 1.6 |  |  |  |  |  |  |
| CC1=C(CC[C@H](C)CNC(C)C)O[C@H]2C[C@H]3[C@@H]4CC[C@H]5C[C@@H](O)CC[C@]5(C)[C@H]4CC[C@]3(C)[C@@H]12 [Example 7, (2aS,4S,6aS,6bS,8aS,8bS,11aS,12aS,12bR)-10-((S)-4-(Isopropylamino)-3-methylbutyl)-6a,8a,9-trimethyl-2,2a,3,4,5,6,6a,6b,7,8,8a,8b,11a,12,12a,12b-hexadecahydro-1H-naphtho[2′,1′:4,5]indeno[2,1-b]furan-4-ol] | -0.9 ± 1.5 | 0.5 ± 1.9 | 11.6 ± 2.3 | 11 ± 1.9 | 12.2 ± 3.2 |  |  |  |  |  |  |
| CC(=O)O[C@H]1CC[C@@]2(C)[C@@H](CC[C@@H]3[C@@H]2CC[C@@]2(C)[C@H]3C[C@@H]3OC(CC[C@H](C)CNC(=O)OC(C)(C)C)=C(C)[C@@H]32)C1 [Example 4, (2aS,4S,6aS,6bS,8aS,8bS,11aS,12aS,12bR)-10-((S)-4-((tert-butoxycarbonyl)amino)-3-methylbutyl)-6a,8a,9-trimethyl-2,2a,3,4,5,6,6a,6b,7,8,8a,8b,11a,12,12a,12b-hexadecahydro-1H-naphtho[2′,1′:4,5]indeno[2,1-b]furan-4-yl acetate acetate] | 4.3 ± 1.6 | 4 ± 2.1 | 11.2 ± 2.3 | 13.4 ± 1.5 | 11.4 ± 2.9 |  |  |  |  |  |  |
| CC1=C(CC[C@H](C)CNC(C)C(F)F)O[C@H]2C[C@H]3[C@@H]4CC[C@H]5C[C@@H](O)CC[C@]5(C)[C@H]4CC[C@]3(C)[C@@H]12 (stereo partly drawn) [Example 9, (2aS,4S,6aS,6bS,8aS,8bS,11aS,12aS,12bR)-10-((3S)-4-((1,1-Difluoropropan-2-yl)amino)-3-methylbutyl)-6a,8a,9-trimethyl-2,2a,3,4,5,6,6a,6b,7,8,8a,8b,11a,12,12a,12b-hexadecahydro-1H-naphtho[2′,1′:4,5]indeno[2,1-b]furan-4-ol] | -1.5 ± 2.3 | 1.2 ± 0.7 | 8.6 ± 2.5 | 6.2 ± 2.1 | 6.9 ± 2.6 |  |  |  |  |  |  |
| CC1=C(CC[C@H](C)CN(C)C)O[C@H]2C[C@H]3[C@@H]4CC[C@H]5C[C@@H](O)CC[C@]5(C)[C@H]4CC[C@]3(C)[C@@H]12 [Example 8, (2aS,4S,6aS,6bS,8aS,8bS,11aS,12aS,12bR)-10-((S)-4-(Dimethylamino)-3-methylbutyl)-6a,8a,9-trimethyl-2,2a,3,4,5,6,6a,6b,7,8,8a,8b,11a,12,12a,12b-hexadecahydro-1H-naphtho[2′,1′:4,5]indeno[2,1-b]furan-4-ol] | 0.5 ± 2.1 | 5 ± 1.9 | 9.7 ± 0.7 | 10.7 ± 1.6 | 9.1 ± 1.2 |  |  |  |  |  |  |
| CC1=C(CC[C@H](C)CN)O[C@H]2C[C@H]3[C@@H]4CC[C@H]5C[C@@H](O)CC[C@]5(C)[C@H]4CC[C@]3(C)[C@@H]12.Cl [Example 3, (2aS,4S,6aS,6bS,8aS,8bS,11aS,12aS,12bR)-10-((S)-4-Amino-3-methylbutyl)-6a,8a,9-trimethyl-2,2a,3,4,5,6,6a,6b,7,8,8a,8b,11a,12,12a,12b-hexadecahydro-1H-naphtho[2′,1′:4,5]indeno[2,1-b]furan-4-ol hydrochloride] |  |  |  |  |  | 8.3 ± 1.9 | 3.8 ± 1.8 | 6.7 ± 2.4 | 9.2 ± 2.4 | 16.4 ± 1.3 | 17.9 ± 0.7 |
| CC1=C(CC[C@H](C)CNC(=O)OCC(C)C)O[C@H]2C[C@H]3[C@@H]4CC[C@H]5C[C@@H](O)CC[C@]5(C)[C@H]4CC[C@]3(C)[C@@H]12 [Example 6, Isobutyl ((S)-4-((2aS,4S,6aS,6bS, 8aS, 8bS,11aS,12aS,12bR)-4-hydroxy-6a, 8a,9-trimethyl-2,2a,3,4,5,6,6a,6b,7,8,8a, 8b,11a,12,12a,12b-hexadecahydro-1H-naphtho[2′,1′:4,5]indeno[2,1-b]furan-10-yl)-2-methylbutyl)carbamate] | 1.1 ± 0.8 | -0.1 ± 3.1 | 4.2 ± 3.2 | 10.9 ± 3.1 | 9 ± 1.6 |  |  |  |  |  |  |
| CC1=C(CC[C@H](C)CN)O[C@H]2C[C@H]3[C@@H]4CC[C@H]5CC(NCCO)CC[C@]5(C)[C@H]4CC[C@]3(C)[C@@H]12.Cl.Cl (stereo partly drawn) [Example 11, 2-(((2aS,6aS,6bS,8aS,8bS,11aS,12aS,12bR)-10-((S)-4-amino-3-methylbutyl)-6a,8a,9-trimethyl-2,2a,3,4,5,6,6a,6b,7,8,8a,8b,11a,12,12a,12b-hexadecahydro-1H-naphtho[2′,1′:4,5]indeno[2,1-b]furan-4-yl)amino)ethanol dihydrochloride] |  |  |  |  |  |  | −1.8 ± 2.0 | 7.7 ± 1.5 | 6.3 ± 1.9 | 8.8 ± 2.1 | 4.9 ± 1.1 |

Reference: patent publication US11136348B2, “Furostan-3-ol derivatives as skeletal muscle hypertrophic agents” (EMMYON, INC., priority 2015, dated 2021)
